{"source": "paper PMC12292992", "about": "“Betulinic Acid ω-Triphenylphosphonium Alkyl Esters: Antiproliferative Activities and In Silico Pharmacokinetic Profiles” (Biomedicines, 2025)", "key": {"AGS cells": {"test_system": "AGS cells", "assay": "MTT cell viability assay, gastric adenocarcinoma", "assay_type": "cell-based", "conditions": "Homo sapiens, 72 h", "experimental": "(§1) Human cell lines were obtained from the American Type Culture Collection (ATCC, Manassas, VA, USA). Normal lung MRC-5 fibroblasts (ATCC® CCL-171™), SK-MES-1 lung cancer cells (ATCC® HTB-58™), and J82 bladder carcinoma cells (ATCC® HTB-1™) were grown as monolayers in Eagle’s minimum essential medium (MEM) with Earle’s salts, 2 mM L-glutamine, and 1.5 g/L sodium bicarbonate. Gastric epithelial AGS cells (ATCC® CRL-1739™) were grown as monolayers in Ham’s F-12 medium containing 1 mM L-glutamine and 1.5 g/L sodium bicarbonate. Promyelocytic leukemia HL-60 (ATCC® CCL-240™), colorectal adenocarcinoma HCT-15 (ATCC® CCL-225™), metastatic colorectal COLO205 (ATCC® CCL-222™), and breast cancer AU565 (ATCC® CRL-2351™, ER^−-HER2/neu^+) cells were grown in suspension in an RPMI-1640 medium containing 1 mM sodium pyruvate and 2.0 g/L sodium bicarbonate. Human breast cancer MCF-7 (ATCC® HTB-22™, ER^+-HER2/neu^−) and MDA-MB-231 (ATCC® HTB-26™, ER^−-HER2/neu^−) cells were grown as monolayers in DMEM medium. All media were supplemented with 10% heat-inactivated fetal bovine serum (HI-FBS), 100 IU/mL penicillin G, and 100 µg/mL streptomycin. Cells were maintained at 37 °C in a humidified incubator with 5% CO2.\n(§2) MRC-5, SK-MES-1, J82, and AGS cells were seeded at a density of 5 × 10^4 cells/mL in 96-well plates. COLO205, HCT-15, MCF-7, MDA-MB-231, and AU565 cells were seeded at 1 × 10^5 cells/mL, while HL-60 cells were plated at 3 × 10^5 cells/mL. A volume of 100 µL of the cell suspension was added to each well. After 24 h, the compounds were added in increasing concentrations (ranging from 0 to 100 µM), and cells were incubated for 24, 48, or 72 h. The compounds were dissolved in DMSO and diluted in complete medium to a final concentration of 0.5% DMSO. Cells treated with 0.5% DMSO in complete medium were used as viability controls (100%). Etoposide (98% purity, Sigma-Aldrich, St. Louis, MO, USA) was used as the reference compound. Each concentration was tested in quadruplicate, and each experiment was performed twice using independent cell preparations. At the end of the incubation period, cell viability was determined using the MTT reduction assay. The results were transformed into percentages relative to controls, and IC50 values were obtained graphically from the dose–response curves. Results are presented as IC50 values ± standard deviation (SD)."}, "SK-MES-1 cells": {"test_system": "SK-MES-1 cells", "assay": "MTT cell viability assay, lung cancer", "assay_type": "cell-based", "conditions": "Homo sapiens, SK-MES-1, 72 h", "experimental": "as §1, §2"}, "J82 cells": {"test_system": "J82 cells", "assay": "MTT cell viability assay, bladder carcinoma", "assay_type": "cell-based", "conditions": "Homo sapiens, J82, 72 h", "experimental": "as §1, §2"}, "COLO205 cells [1]": {"test_system": "COLO205 cells", "assay": "MTT cell viability assay, metastatic colorectal cancer", "assay_type": "cell-based, human", "conditions": "for IC50: Homo sapiens, COLO 205", "experimental": "as §1, §2"}, "MCF-7 cells [2]": {"test_system": "MCF-7 cells", "assay": "MTT cell viability assay, mammary carcinoma", "assay_type": "cell-based", "conditions": "Homo sapiens, MCF7", "experimental": "as §1, §2"}, "MDA-MB-231 cells": {"test_system": "MDA-MB-231 cells", "assay": "MTT cell viability assay, mammary carcinoma", "assay_type": "cell-based", "conditions": "Homo sapiens", "experimental": "as §1, §2"}, "AU565 cells": {"test_system": "AU565 cells", "assay": "MTT cell viability assay, mammary carcinoma", "assay_type": "cell-based, human", "conditions": "for IC50: Homo sapiens", "experimental": "as §1, §2"}, "MCF-7 cells [3]": {"test_system": "MCF-7 cells", "assay": "Oxygen consumption assay (Clark-type electrode)", "assay_type": "cell-based, human", "conditions": "for oxygen consumption rate: after oligomycin", "experimental": "Oxygen consumption of the tumor cells was measured polarographically using a Clark-type electrode (Yellow Springs Instruments, Dayton, OH, USA) placed horizontally in a cell of 0.6 mL volume at 25 °C, coupled to a YSI monitor (model 53). The electrode signal was recorded in a computer connected to a DI-148U module with a USB interface. Data were acquired using the Windaq Acquisition Waveform Recorder software v3.36 (DataQ Instruments, Akron, OH, USA). The test medium used contained 150 mM NaCl, 5 mM KCl, and 1 mM Tris-HCl, and pH 7.4. 5 mM glutamine was added with the cells and test compounds. Oxygen consumption was recorded when the cell aliquots (6 × 10^6 cells) were added. Oligomycin (1.5 μg/mL) was added as an inhibitor of the Fo subunit of ATP synthase prior to the incorporation of the compounds under study. FCCP (carbonyl cyanide-p-trifluoromethoxyphenylhydrazone, 50 nM) was used prior to the addition of test compounds as an internal control to calibrate the electrode system and confirm the maximum uncoupling capacity of the cells."}, "COLO205 cells [4]": {"test_system": "COLO205 cells", "assay": "Annexin V/propidium iodide double staining, flow cytometry", "assay_type": "cell-based, human", "conditions": "24 h", "experimental": "(§3) The type of cell death induced by the BA-C4-TPP^+Br^− was assessed by flow cytometry, using Annexin V/propidium iodide (AV/PI) double staining, following the instructions of the Annexin V-FITC Apoptosis Detection Kit (Abcam, Cambridge, UK). Cells were cultured at 5 × 10^4 cells/well in 24-well plates and incubated overnight. Afterwards, cells were treated with increasing concentrations of BA-C4-TPP^+Br^− (1, 2.5, 5, or 10 µM for COLO205 and HCT-15 cells) for 24 h. Finally, cells were trypsinized, resuspended in annexin V binding buffer 1X, adding AV and PI, and incubated for 5 min at room temperature, protected from light. Control corresponds to cells incubated with DMSO 1%. Fluorescence of each probe was assessed by flow cytometry (FACSAria®III, BD Biosciences, Franklin Lakes, NJ, USA). Wavelengths used were 488Ex/530Em nm for AV-FITC and 488Ex/575Em nm for PI. Results are expressed as total apoptotic cells (percentage of AV+/PI− and AV+/PI+ cells), necrotic cells (percentage of AV-/PI+ cells), and live cells (percentage of AV-/PI− cells). Cyflogic software (non-commercial 6th version, CyFlo Ltd., Turku, Finland) was used for data processing."}, "HCT-15 cells": {"test_system": "HCT-15 cells", "assay": "Annexin V/propidium iodide double staining, flow cytometry", "assay_type": "cell-based, human", "conditions": "24 h", "experimental": "as §3"}, "human cancer cell lines": {"test_system": "human cancer cell lines", "assay": "MTT cell viability, summary over the human cancer cell lines", "assay_type": "cell-based", "conditions": "summary statement", "experimental": "as §1, §2"}}, "data": [{"smiles": "C=C(C)[C@@H]1CC[C@]2(C(=O)OCCCC[P+](c3ccccc3)(c3ccccc3)c3ccccc3)CC[C@]3(C)[C@H](CC[C@@H]4[C@@]5(C)CC[C@H](O)C(C)(C)[C@@H]5CC[C@]43C)[C@@H]12", "note": "[BA-C4-TPP^+Br^−, 4-Triphenylphosphoniobutyl 3β-hydroxylup-20(29)-en-28-oate bromide]", "values": [{"measurement": "IC50", "setting": "AGS cells", "value": "0.35 ± 0.02", "unit": "µM"}, {"measurement": "IC50", "setting": "SK-MES-1 cells", "value": "0.32 ± 0.08", "unit": "µM"}, {"measurement": "IC50", "setting": "J82 cells", "value": "0.84 ± 0.02", "unit": "µM"}, {"measurement": "increase in potency compared to non-modified BA scaffold", "setting": "COLO205 cells [1]; COLO205 cells at 72 h", "value": "~264", "unit": "fold"}, {"measurement": "IC50", "setting": "COLO205 cells [1]; COLO205, 24 h", "value": "0.88 ± 0.22", "unit": "µM"}, {"measurement": "IC50", "setting": "COLO205 cells [1]; COLO205, 48 h", "value": "0.45 ± 0.09", "unit": "µM"}, {"measurement": "IC50", "setting": "COLO205 cells [1]; COLO205, 72 h", "value": "0.13 ± 0.01", "unit": "µM"}, {"measurement": "IC50", "setting": "MCF-7 cells [2]; MCF-7, 24 h", "value": "3.88 ± 0.45", "unit": "µM"}, {"measurement": "IC50", "setting": "MCF-7 cells [2]; MCF-7, 48 h", "value": "0.95 ± 0.34", "unit": "µM"}, {"measurement": "IC50", "setting": "MDA-MB-231 cells; MDA-MB-231, 24 h", "value": "1.7 ± 0.44", "unit": "µM"}, {"measurement": "IC50", "setting": "MDA-MB-231 cells; MDA-MB-231, 48 h", "value": "1.01 ± 0.09", "unit": "µM"}, {"measurement": "increase in potency compared to non-modified BA scaffold", "setting": "AU565 cells; AU565 cells at 48 h", "value": "~15", "unit": "fold"}, {"measurement": "IC50", "setting": "AU565 cells; AU565, 24 h", "value": "1.66 ± 0.12", "unit": "µM"}, {"measurement": "IC50", "setting": "AU565 cells; AU565, 48 h", "value": "0.6 ± 0.05", "unit": "µM"}, {"measurement": "oxygen consumption rate", "setting": "MCF-7 cells [3]; MCF-7, 10 µM compound", "value": 12.57, "unit": "nmol O2 min^−1"}, {"measurement": "oxygen consumption rate", "setting": "MCF-7 cells [3]; MCF-7, 20 µM compound", "value": 21.66, "unit": "nmol O2 min^−1"}, {"measurement": "mitochondrial uncoupling effect", "setting": "MCF-7 cells [3]; MCF-7, 10 and 20 µM", "value": "concentration-dependent"}, {"measurement": "apoptosis induction", "setting": "COLO205 cells [4]; COLO205, 1 μM", "value": "~14", "unit": "%"}, {"measurement": "apoptosis induction", "setting": "COLO205 cells [4]; COLO205, 2.5 μM", "value": "~34", "unit": "%"}, {"measurement": "necrotic cell death", "setting": "COLO205 cells [4]; COLO205, 5 μM", "value": 15, "unit": "%"}, {"measurement": "necrotic cell death", "setting": "COLO205 cells [4]; COLO205, initial concentration (1 μM)", "value": 5, "unit": "%"}, {"measurement": "apoptosis induction", "setting": "HCT-15 cells; HCT-15, 2.5 μM", "value": 12, "unit": "%"}, {"measurement": "necrosis induction", "setting": "HCT-15 cells; HCT-15, 2.5 μM", "value": 7, "unit": "%"}, {"measurement": "necrotic cell death", "setting": "HCT-15 cells; HCT-15, 10 μM", "value": "~30", "unit": "%"}, {"measurement": "IC50", "setting": "human cancer cell lines; Homo sapiens, 48 and 72 h of treatment", "value": "< 1", "unit": "µM"}, {"measurement": "increase in potency", "setting": "human cancer cell lines; nine human cancer cell lines, relative to BA", "value": "over 100 fold"}]}]}
